Data from patent US20220348590A1, “CYCLOOXYGENASE-2 INHIBITORS AND USES THEREOF” (The Board Institute, Inc., priority 2019, published 2022).
“Also recorded” adds a separate entry of the source. Like-named read-outs stand apart in the source and are kept apart here.

Experiments:
[1] = target: T1, human recombinant COX2 (hCOX2) (UniProt P35354); experiment: LCMS-based COX2 enzymatic inhibition assay (PGE2 quantification); type: biochemical; set-up: improvement in potency; other: COX2 potency relative to MC1 / earlier ligand; comparator not always stated; other: vs MC1 (MC-1); details: COX2 potency relative to MC1 / earlier ligand; comparator not always stated
T1 sequence (P35354 1-604): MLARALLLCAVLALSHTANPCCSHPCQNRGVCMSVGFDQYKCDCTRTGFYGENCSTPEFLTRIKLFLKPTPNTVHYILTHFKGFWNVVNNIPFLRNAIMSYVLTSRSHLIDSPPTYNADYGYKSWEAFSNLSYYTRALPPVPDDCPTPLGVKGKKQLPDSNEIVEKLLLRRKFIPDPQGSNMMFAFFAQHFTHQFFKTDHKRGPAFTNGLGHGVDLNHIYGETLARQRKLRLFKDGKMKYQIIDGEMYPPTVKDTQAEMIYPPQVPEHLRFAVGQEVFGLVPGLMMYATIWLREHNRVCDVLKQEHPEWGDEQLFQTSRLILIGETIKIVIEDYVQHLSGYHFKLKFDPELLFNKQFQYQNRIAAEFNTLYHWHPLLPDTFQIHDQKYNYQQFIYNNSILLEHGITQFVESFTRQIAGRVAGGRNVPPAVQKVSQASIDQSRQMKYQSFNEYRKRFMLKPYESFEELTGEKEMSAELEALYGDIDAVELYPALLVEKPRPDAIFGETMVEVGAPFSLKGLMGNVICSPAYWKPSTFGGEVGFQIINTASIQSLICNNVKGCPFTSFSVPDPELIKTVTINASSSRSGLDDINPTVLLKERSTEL
Description: (§1) We have adapted a previously reported cyclooxygenase enzymatic assay utilizing LCMS quantification of PGE2 as the product of COX-1 and COX2 catalyzed conversion of arachidonic acid to evaluate the binding properties of newly synthesized ligands [Cao, 2011]. These optimized and miniaturized (384-well plates) LCMS-based COX-1 and COX2 enzymatic assays enabled us to quickly evaluate newly synthesized ligands for COX2 binding affinity and selectivity vs COX-1. Using a shorter ligand-enzyme incubation time in the LCMS assay (2 minutes vs 10 minutes) also permitted us to prioritize ligands with faster binding kinetics. Considering the relatively slow on-rate kinetics of known coxibs, due to their 3-step binding mechanism [Marnett, 2009], we believe that optimizing this critical parameter will be key to the successful development of a COX2 PET tracer. Using these enzymatic assays, we have evaluated>200 newly synthesized ligands against COX2 and >20 ligands against COX-1. Another critical property necessary for a good PET radiotracer is to have low non-specific binding (NSB) to increase the free fraction and maximize the signal to noise ratio. This property can be evaluated using in-vitro protein binding assays, and we have now evaluated>50 newly synthesized ligands in mouse, rat and human plasma protein binding (PPB) assays as well as >15 ligands in a mouse brain protein binding (BPB) assay.
Ovine COX-1 (oCOX-1), ovine COX2 (oCOX2), human recombinant COX2 (hCOX2), arachidonic acid, PGE2, d4-PGD2, and […] (labeled with deuterium atoms at positions 3 and 4) were purchased from Cayman Chemicals (Ann Arbor, Mich.). The cofactors (−)epinephrine and hematin, and the COX inhibitors indomethacin, resveratrol and diclofenac were purchased from Sigma-Aldrich (St. Louis, Mo.). Celecoxib was purchased from 3B PharmaChem International (Wuhan, China). All organic solvents were HPLC grade or better and were purchased from Thermo Fisher (Hanover Park, Ill.). Formic acid was purchased from EMD Chemicals (San Diego, Calif.). Purified water was prepared by using a Millipore Milli-Q purification system (Millipore, Billerica, Mass.). All other chemicals and solvents were ACS reagent grade, unless stated otherwise.
In an Eppendorf tube, 146 μL of 100 mM Tris.HCl (pH 8.0) buffer, 2 μL of 100 μM hematin (co-factor) and 10 μL of 40 mM L-epinephrine (co-factor) were mixed at room temperature. […]
The concentration of PGE2 in each sample was measured using LC-MS-MS, and the percent of COX inhibition by each test solution was determined by comparing the amount of PGE2 produced in the experiment with that produced in the negative control incubation. The formation of PGD2 was measured for quality control purposes, since the levels of PGD2 should be proportional to those of PGE2. […]

[2] = in-vitro protein binding: free fraction / fraction unbound, matrix and species not given; type: in vitro ADME
Description: as §1

[3] = target: T1, human recombinant COX2 (hCOX2); experiment: LCMS-based COX2 enzymatic inhibition assay (PGE2 quantification); type: biochemical; set-up: COX2 2 minutes pge2/pge2d4 area ratio Avg; other: 2 minutes; readout pge2/pge2d4 area ratio; average; COX2 2 minutes pge2/pge2d4 area ratio Avg; LLE; average LLE; COX2 2 minutes pge2 area (counts) Avg; readout pge2 area (counts); other: 2 min; "ovine COX2 (oCOX2), human recombinant COX2 (hCOX2)"; details: 2 minutes; for IC50: average
Summary of the method: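 Ovine COX-1 (0.1 μg) or human recombinant COX2 (0.2 μg) in 100 mM Tris.HCl pH 8.0 with hematin and epinephrine, preincubated with inhibitor 10 min at 37 °C. Reaction with 5 μM arachidonic acid stopped after 2 min with HCl; PGE2 quantified by LC-MS-MS. IC50 from 12 concentrations in triplicate.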

COX2 [4] = target: T2, COX2 (Rattus norvegicus, UniProt P35355); experiment: in-vitro autoradiography in rat brain slices (self-block); type: binding; details: rat brain slices in vitro autoradiography, self-block, compared to earlier tracers
T2 construct: in-vitro autoradiography in rat brain slices; from tissue; host or cells: rat brain slices
T2 sequence (P35355 18-604): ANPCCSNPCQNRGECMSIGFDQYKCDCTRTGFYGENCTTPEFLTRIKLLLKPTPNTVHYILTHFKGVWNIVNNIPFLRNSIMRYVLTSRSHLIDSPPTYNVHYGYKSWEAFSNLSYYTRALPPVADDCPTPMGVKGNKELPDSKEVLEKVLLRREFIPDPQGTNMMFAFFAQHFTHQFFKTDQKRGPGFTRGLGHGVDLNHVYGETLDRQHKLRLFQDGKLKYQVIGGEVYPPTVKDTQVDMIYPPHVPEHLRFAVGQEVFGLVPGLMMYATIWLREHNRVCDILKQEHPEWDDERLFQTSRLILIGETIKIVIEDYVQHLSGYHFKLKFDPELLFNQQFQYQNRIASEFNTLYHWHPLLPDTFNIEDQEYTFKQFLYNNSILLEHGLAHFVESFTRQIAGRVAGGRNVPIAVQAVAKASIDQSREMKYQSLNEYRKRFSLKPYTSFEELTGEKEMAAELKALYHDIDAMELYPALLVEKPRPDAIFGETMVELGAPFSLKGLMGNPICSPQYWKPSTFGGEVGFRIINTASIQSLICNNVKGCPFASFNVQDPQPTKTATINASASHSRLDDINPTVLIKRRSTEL
Source text: Three ligands have been evaluated with in-vitro autoradiography in rat brain slices. Radiolabeling was accomplished via methylation of either a sulfinate precursor ([^11C]Rofecoxib), hydroxyl precursor ([^11C]MC1) or thiol precursor ([^11C]98) using [^11C]-methyl iodide and offers chemical flexibility for radiolabeling of future candidates. […] This translated into a ˜2-fold increase in COX2 specific binding in a rat brain slice in-vitro autoradiography. […] These properties enable us to better understand the contribution of potency and free fraction to the ligand's specific binding.
Three newly synthesized COX2 ligands were successfully radiolabeled using this strategy and first evaluated by in-vitro autoradiography in rat brain slices using self-block experiments (FIG. 5). […] [^11C]36 was also evaluated for specific binding using self-block experiments in human post-mortem brain tissues (globus pallidus) from three Huntington's disease (HD) patients (FIG. 6). COX2 protein levels were quantified using immunostaining and defined as high, medium and low, respectively.

COX2 [5] = target: T2, COX2; experiment: rat in-vivo PET imaging (brain pharmacokinetics, self-block)
[6] = PET imaging in non-human primate (baboon); type: in vivo
Source text: This ideal pharmacokinetic profile in non-human primate positions these two optimized lead radiotracers for further evaluation using kinetic modeling with an arterial plasma input function and correction for plasma fraction unbound to obtain total volume of distribution (VT), the gold standard measure for PET quantification.

Row | improvement in potency [1] [fold] | fraction unbound [2] | COX2 2 minutes pge2/pge2d4 area ratio Avg. LLE ([3]; readout pge2/pge2d4 area ratio, average LLE) | IC50 ([3]; readout pge2/pge2d4 area ratio, read-out: COX2 2 minutes pge2/pge2d4 area ratio Avg. IC50) [nM] | COX2 2 minutes pge2 area (counts) Avg. LLE ([3]; readout pge2 area (counts), average LLE) | IC50 ([3]; readout pge2 area (counts), read-out: COX2 2 minutes pge2 area (counts) Avg. IC50) [nM] | specific binding (COX2 [4]) | specific binding in vivo (COX2 [5]; rat PET, self-block experiment, between 30-60 minutes) | SMILES | brain pharmacokinetic (brain uptake and clearance) (COX2 [5]; rat in-vivo PET imaging) | brain uptake and clearance [6]
1 | 10 |  |  |  |  |  |  |  | COc1cc(OCc2cccs2)nc(-c2ccc(S(C)(=O)=O)cc2)n1 [Compound 331] |  | 
2 | ~6 | 0.025 | 4.506 | 108 | 4.564 | 99.9 |  |  | COc1ncc(-c2ccc(S(C)(=O)=O)cc2)nc1NCc1cccs1 [Compound 116] |  | 
3 |  |  |  |  |  |  | significantly increased specific binding | modest but consistent specific binding | CS(=O)(=O)c1ccc(-c2cccc(NCc3ccoc3)n2)cc1 [[^11C]47] | high and rapid brain uptake followed by fast clearance | high, fast and homogeneous brain uptake along with fast clearance; also recorded: high, rapid and homogeneous brain uptake followed by fast clearance
